Results reported in patent publication US20230120597A1, “CO-AGONISTS AT GLP-1 AND GIP RECEPTORS SUITABLE FOR ORAL DELIVERY” (Novo Nordisk A/S, priority 2020, published 2023).
Read-outs that look alike come from different tables or passages of the source. Starred links: 1 amine or outer side, 2 acyl side, 3 side chain; linkers in the order of their positions; H or OH if unused. Non-standard residues stand in square brackets, D forms with d. Residues, ends and D or L forms follow the SMILES beside them. Groups on a side chain read outwards from the residue. *: point of attachment. C18 diacid = O=C(O)CCCCCCCCCCCCCCCCC(=O)*; γGlu = O=C(O)[C@H](CCC(=O)[*:2])N[*:1]; εLys = N[C@@H](CCCCN[*:1])C(=O)[*:2]; Aib = CC(C)(N)C(=O)O

Legend:
[1] = biological target: T1, human GIP receptor (Homo sapiens, UniProt P48546); test: In vitro functional potency, CRE luciferase reporter gene assay, whole BHK cells expressing hGIPR; type: cell-based; settings: BHK CRE luc2P hGIPR cells
T1 construct: expressed in transfected cells; host or cells: BHK (parent line BHKTS13), clone BHK CRE luc2P hGIPR
T1 sequence (P48546 22-466): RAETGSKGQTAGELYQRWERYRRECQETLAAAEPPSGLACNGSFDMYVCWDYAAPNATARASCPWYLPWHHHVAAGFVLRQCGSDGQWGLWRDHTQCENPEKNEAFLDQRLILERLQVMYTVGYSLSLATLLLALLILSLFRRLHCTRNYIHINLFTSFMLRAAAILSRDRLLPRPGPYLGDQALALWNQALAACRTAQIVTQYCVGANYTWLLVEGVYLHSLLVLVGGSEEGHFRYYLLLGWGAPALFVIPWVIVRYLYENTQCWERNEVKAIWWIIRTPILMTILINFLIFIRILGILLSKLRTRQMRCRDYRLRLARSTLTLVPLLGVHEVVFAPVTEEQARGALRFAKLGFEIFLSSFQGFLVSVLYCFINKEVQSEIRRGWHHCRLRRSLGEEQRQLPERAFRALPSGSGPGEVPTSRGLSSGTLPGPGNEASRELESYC

[2] = Pharmacokinetic study in dogs, oral dosing of tablet compositions with SNAC; type: in vivo, Beagle dogs; settings: for Tmax / half-life: male
Procedure, shortened: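 Male beagle dogs (9-17 kg), fasted, received a single oral tablet with 100-300 mg SNAC and 3-4 mg test substance, groups of 6-8.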

[3] = biological target: T2, human GLP-1 receptor (Homo sapiens, UniProt P43220); test: In vitro functional potency, CRE luciferase reporter gene assay, whole BHK cells expressing hGLP-1R; type: cell-based; settings: BHK CRE luc2P hGLP-1R cells
T2 construct: expressed in transfected cells; host or cells: BHK (parent line BHKTS13), clone BHK CRE luc2P hGLP-1R
T2 sequence (P43220 24-463): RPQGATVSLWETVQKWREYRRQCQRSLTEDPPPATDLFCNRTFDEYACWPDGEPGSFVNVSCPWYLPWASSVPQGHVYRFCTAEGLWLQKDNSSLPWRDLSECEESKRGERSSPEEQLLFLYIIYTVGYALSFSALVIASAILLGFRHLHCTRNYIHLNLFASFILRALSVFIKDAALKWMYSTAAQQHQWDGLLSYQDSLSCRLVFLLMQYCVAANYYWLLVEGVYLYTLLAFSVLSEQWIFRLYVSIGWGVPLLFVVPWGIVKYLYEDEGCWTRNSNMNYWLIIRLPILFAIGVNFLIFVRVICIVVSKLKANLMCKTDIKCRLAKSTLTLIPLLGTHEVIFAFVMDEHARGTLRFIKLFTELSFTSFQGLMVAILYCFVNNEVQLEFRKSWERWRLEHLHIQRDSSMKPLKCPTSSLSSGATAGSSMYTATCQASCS

[4] = in vivo; cited from earlier work
[5] = hGIPR, CRE Luc 1% HSA EC50, 1% HSA
[6] = hGLP-1R, CRE Luc 1% HSA EC50, 1% HSA

Molecule	EC50 ([1]; 0% HSA, read-out: hGIPR, CRE Luc 0% HSA EC50) [nM]	EC50 [1, 5] [nM]	AUC/Dose ([2]; dog, in vivo, po) [kg·h/L]	Tmax ([2]; beagle, dog, in vivo, po, Tmax) [h]	half-life ([2]; beagle, dog, in vivo, po, t1/2) [h]	EC50 ([3]; 0% HSA, read-out: hGLP-1R, CRE Luc 0% HSA EC50) [nM]	EC50 [3, 6] [nM]	EC50 ([1]; hGIPR, CRE Luc 0% HSA EC50, 0% HSA) [nM]	half-life ([2]; dog, in vivo, oral tablet, SNAC 100 mg, test substance 3 mg, Beagle dogs, harmonic mean, read-out: t1/2 (converted)) [h]	Tmax ([2]; dog, in vivo, oral tablet, SNAC 100 mg, test substance 3 mg, Beagle dogs, median, read-out: Tmax) [h]	AUC/Dose ([2]; oral tablet, SNAC 100 mg, test substance 3 mg, Beagle dogs, arithmetic mean) [kg·h/L]	EC50 ([3]; hGLP-1R, CRE Luc 0% HSA EC50, 0% HSA) [nM]	half-life measured in man [4] [min]
CC[C@H](C)[C@H](NC(=O)[C@H](Cc1ccccc1)NC(=O)[C@H](CCC(=O)O)NC(=O)[C@H](CCCNC(=N)N)NC(=O)[C@H](C)NC(=O)[C@H](C)NC(=O)[C@H](CCC(N)=O)NC(=O)[C@H](CCCCNC(=O)[C@@H](N)CCCCNC(=O)[C@@H](N)CCCCNC(=O)CC[C@H](NC(=O)CCCCCCCCCCCCCCCCC(=O)O)C(=O)O)NC(=O)[C@H](CCC(=O)O)NC(=O)[C@H](CC(C)C)NC(=O)[C@H](Cc1ccc(O)cc1)NC(=O)[C@@H](NC(=O)[C@H](CO)NC(=O)[C@H](Cc1ccc(O)cc1)NC(=O)[C@H](CC(=O)O)NC(=O)[C@H](CO)NC(=O)[C@@H](NC(=O)[C@H](Cc1ccccc1)NC(=O)[C@@H](NC(=O)CNC(=O)[C@H](CCC(=O)O)NC(=O)C(C)(C)NC(=O)[C@@H](N)Cc1ccc(O)cc1)[C@@H](C)O)[C@@H](C)O)[C@@H](C)CC)C(=O)N[C@@H](CC(N)=O)C(=O)N[C@@H](Cc1c[nH]c2ccccc12)C(=O)N[C@@H](CC(C)C)C(=O)N[C@@H](CC(C)C)C(=O)N[C@@H](C)C(=O)NCC(=O)NCC(=O)N1CCC[C@H]1C(=O)N[C@@H](CO)C(=O)N[C@@H](CO)C(=O)NCC(=O)N[C@@H](C)C(=O)N1CCC[C@H]1C(=O)N1CCC[C@H]1C(=O)N1CCC[C@H]1C(=O)N[C@@H](CO)C(=O)O [Compound No. 11] (H-Y[Aib]EGTFTSDYSIYLEK([εLys-εLys-γGlu-C18 diacid])QAAREFINWLLAGGPSSGAPPPS-OH; N-terminus assumed)	0.0099	0.45	7.1	1.4	34	0.0033	0.132						
CC[C@H](C)[C@H](NC(=O)[C@H](Cc1ccccc1)NC(=O)[C@H](CCC(=O)O)NC(=O)[C@H](CCCNC(=N)N)NC(=O)[C@H](C)NC(=O)[C@H](C)NC(=O)[C@H](CCC(N)=O)NC(=O)[C@H](CCCCNC(=O)[C@@H](N)CCCCNC(=O)[C@@H](N)CCCCNC(=O)CC[C@H](NC(=O)CCCCCCCCCCCCCCCCC(=O)O)C(=O)O)NC(=O)[C@H](CCC(=O)O)NC(=O)[C@H](CC(C)C)NC(=O)[C@H](Cc1ccc(O)cc1)NC(=O)[C@@H](NC(=O)[C@H](CO)NC(=O)[C@H](Cc1ccc(O)cc1)NC(=O)[C@H](CC(=O)O)NC(=O)[C@H](CO)NC(=O)[C@@H](NC(=O)[C@H](Cc1ccccc1)NC(=O)[C@@H](NC(=O)CNC(=O)[C@H](CCC(=O)O)NC(=O)C(C)(C)NC(=O)[C@@H](N)Cc1ccc(O)cc1)[C@@H](C)O)[C@@H](C)O)[C@@H](C)CC)C(=O)N[C@@H](CCC(=O)O)C(=O)N[C@@H](Cc1c[nH]c2ccccc12)C(=O)N[C@@H](CC(C)C)C(=O)N[C@@H](CC(C)C)C(=O)N[C@@H](CCCNC(=N)N)C(=O)NCC(=O)NCC(=O)N1CCC[C@H]1C(=O)N[C@@H](CCC(=O)O)C(=O)N[C@@H](CO)C(=O)NCC(=O)N[C@@H](C)C(=O)N1CCC[C@H]1C(=O)N1CCC[C@H]1C(=O)N1CCC[C@H]1C(=O)N[C@@H](CO)C(=O)O [Compound No. 13] (H-Y[Aib]EGTFTSDYSIYLEK([εLys-εLys-γGlu-C18 diacid])QAAREFIEWLLRGGPESGAPPPS-OH)		0.257					0.204	0.0139	60	1.5	14.8	0.0074	
hGLP-1: human glucagon-like peptide 1, native hormone whose half-life in man is cited from Meier et al.													2 to 4
